In patent publication US6017958A, “Method of treating malignant tumors with thyroxine analogues having no significant hormonal activity” (Octamer, Inc., priority 1997, dated 2000):

How the values were obtained:
[1] = system: biosynthetic pathways of DNA, RNA or proteins; assay: Metabolic action and biosynthetic pathways
CV-1 cells = assay: cells; type: in vitro ADME; settings: Cercopithecidae; CV-1, 24 hours; read-out: Extracellular DIME (concentration that causes 100% growth inhibition)
Experimental: (§1) Monolayer cultures in 9.6 cm^2 wells (3 ml medium) were exposed to [^14 C]-DIME (10.55 mCi/mmol) for 24 hours, then washed 7 times with 1 ml medium containing unlabeled DIME. The cells were dissolved in 1 ml of 4% Na2 CO3 and 0.2 M NaOH and radioactivity measured by scintillation counting. Cell volume was determined by hematocrit and cell counting from parallel wells treated with unlabeled DIME.
(§2) A striking property of DIME is its apparent selectivity for tumors in vivo. We performed drug metabolism and cellular DIME uptake tests to further characterize this property. Incubation of cells in culture with [^14 DIME, under conditions described previously, Bauer et al., 1996, "Modification of growth related enzymatic pathways and apparent loss of tumorigenicity of a ras-transformed bovine endothelial cell line by treatment with 5-iodo-6-amino-1,2-benzopyrone (INH2 BP)" Intl. J. Oncol. […] As shown in Table 9 the tumorigenic transformed cells in general took up DIME more rapidly than nontransformed cells (CV-1) or cells that were less sensitive to killing-by DIME (e.g. E-ras 20). […] On the other hand homogenates of organs of normal mice actively metabolize (de-esterify) DIME as illustrated in Table 10.

MDA-MB-231 cells [2] = assay: cells; type: in vitro ADME; settings: Homo sapiens; MDA-MB-231, 24 hours; read-out: Extracellular DIME (concentration that causes 100% growth inhibition)
Experimental: as §1, §2

CV-1-Transformed cells = assay: cells; type: in vitro ADME; settings: 24 hours, read-out: Extracellular DIME (concentration that causes 100% growth inhibition)
Experimental: as §1, §2

Rana pipiens tadpoles = settings: tadpole metamorphosis; cited from earlier work
[3] = system: microtubule protein (MTP); assay: Microtubule protein (MTP) polymerization optical test; type: biochemical, bovine or rabbit
Experimental: Preparation of MTP and an optical test for polymerization was adopted from published methods, Gaskin, et al., 1974, "Turbidimetric studies of the in vitro assembly and disassembly of porcine neurotubules", J. Mol. Biol. 89:737-758; Tiwari, et al., 1993, "A pH and temperature-dependent cycling method that doubles the yield of microtubule protein", Anal. Biochem. 215:96-103. Bovine or rabbit brain was homogenized in an equal volume of ice cold buffer containing 100 mM Pipes/K^+ (pH 7.4), 4 mM EGTA, 1 mM MgCl2, 0.5 mM DTT and 0.1 mM PMSF, and centrifuged at 39,000 g for 1 hour at 4° C. To the supernatant, DMSO (8% final concentration) and GTP (1 mM final concentration) were added, followed by incubation at 37° C. for 30 minutes. Microtubules were pelleted at 100,000 g at 37° C for 30 minutes. The pellets were incubated on ice for 15 minutes, followed by resuspension in ice cold PEM buffer (100 mM Pipes/K+(pH 6.9), 1 mM EGTA, 1 mM MgCl2). This warm polymerization and cold depolymerization cycle was repeated once more and the cold, resuspended monomeric MTP (8-10 mg/ml protein) was used for the optical test for polymerization kinetics. Both rabbit or bovine brain yielded identical MTP preparations.
The composition of the optical test is described in the legends of Figures and Table 12. The polymerization reaction was started by the addition of 100 μl of MTP solution (equivalent to 0.8-1.0 mg protein) and initial linear rates of increase in absorbance at 350 nm followed and recorded at 37° C. (see FIG. 1) in a Perkin-Elmer 552 double beam spectrophotometer, equipped with a thermostatically controlled cuvette holder.
[…] Microtubule assembly at 37° C. was monitored at λ=350 nm and initial velocities were calculated as mA350 /min. […] The values are averages of duplicate assays.

[4] = system: protein phosphatase 2A (E-ras 20 cell nuclear extract); assay: Phosphatase activity, E-ras 20 cell nuclear extract; type: cell-based, bovine
Experimental: (§3) Compounds 1-13 were tested for protein phosphatase 2A activation in malignant tumor cell cultures in vitro according to the protocol described in Bauer et al., 1996, "Modification of Growth Related Enzymatic Pathways and Apparent Loss of Tumorigenicity of a Ras-Transformed Bovine Endothelial Cell Line by Treatment with 5-Iodo-6-Amino-1,2-Benzopyrone (INH2 BP)," International J. of Oncology 8:239-252. All other compounds were ineffective.

[5] = system: protein phosphatase 2A (DU-145); assay: Phosphatase activity, DU-145; type: cell-based, human
Experimental: as §3

MDA-MB-231 cells [6] = assay: Immunocytochemistry of mitotic spindle and spindle-associated proteins; type: cell-based, human; settings: 18 hrs
Experimental: Cells were fixed in methanol at -20° C. for 5 min. The primary antibody was mouse monoclonal anti-beta tubulin (Amersham) and secondary antibody from goat, conjugated to fluorescein isothiocyanate from Cappel (Durham, N.C., USA). The DNA of nuclei was stained by 10 min of incubation in 0.05 μg/ml 4'-6-diamidono-2-phenylindole (DAPI). Stained cells were viewed with either a Zeiss 40xPlan-Neofluar or a Nikon 60xPlanApo objective. For classification of cells in the mitotic phase, prophase and metaphase were combined into a single category, because it was difficult to distinguish late prophase from metaphase.
In preliminary studies (data not shown) we have also studied the behavior of certain spindle-associated proteins by the immunocytologic technique.

[7] = system: E-ras 20 cells (E-ras transformed bovine endothelial cells); assay: Tumorigenicity of pretreated E-ras 20 cells in athymic nude mice; set-up: species or system bovine cells in nude mice; settings: 10 μM pretreatment, no in vivo drug treatment

## COC(=O)c1cc(I)c(Oc2ccc(OC)cc2)c(I)c1 [Compound 1, Methyl 3,5-diiodo-4-(4'-methoxyphenoxy)benzoate]
[1]
  inhibition of biosynthetic pathways of DNA, RNA or proteins: nor does it inhibit the biosynthetic pathways of DNA, RNA or proteins
  metabolic action: no metabolic action
CV-1 cells
  IC100: 2 µM
MDA-MB-231 cells [2]
  IC100: 2 µM
CV-1-Transformed cells
  IC100: 2 µM
Rana pipiens tadpoles
  metamorphosis / cell differentiating activity: no significant metabolic or cell differentiating activity
[3]; 1 μM DIME
  decrease of Vmax: ~50%
[3]; 1 μM DIME, versus GTP
  type of inhibition of MTP polymerization: "mixed" type inhibition
[3]; 1 μM DIME, 6.7 μM without drug, read-out: km GTP
  Km: 14 µM
[3]; 10 μM, 1 mM GTP, 37° C.
  Percent inhibition of initial velocity of microtubule assembly: 93%
[3]; 1 to 5 μM
  inhibition of GTP-dependent polymerization of MTP: inhibits the GTP-dependent polymerization of MTP
[4]; 50 μM DIME, untreated 29 ± 5
  Phosphatase Activity: 44 ± 7 fmol Pi/mg protein × min.
[4]; 50 μM, E-ras transformed cells
  activation of protein phosphatase 2A, fold: at least two-fold
[5]; 50 μM DIME, untreated 12.1 ± 3
  Phosphatase Activity: 19.1 ± 2.5 fmol Pi/mg protein × min.
[5]; 50 μM, DU-145 cells
  activation of protein phosphatase 2A, fold: at least two-fold
MDA-MB-231 cells [6]; 1 μM
  mitotic spindle / tubulin distribution: striking abnormalities of-tubulin distribution
MDA-MB-231 cells [6]; 1 μM, data not shown
  Cyclin B-microtubule-spindle association: remained unchanged
  cdc-2 kinase-spindle binding: induction of cdc-2-kinase-spindle binding
  number of centrosomes: unable to detect abnormal number of centrosomes
  pericentrin staining pattern: did not alter the pattern of staining
MDA-MB-231 cells [6]; 1 μn (so in the source), data not shown
  protein phosphatase 2a-spindle association: not influenced by drug-treatment
[7]
  tumor appearance after 3 months: Tumors did not appear even after 3 months
